What was measured:
Assay type in all cases: cell-based
P. aeruginosa ATCC 15442 = test: Suspension test EN 1040, bactericidal activity; settings: 1000 ppm of active substance
Description: (§1) The bactericidal activity of the substances of this invention was carried out in a suspension test corresponding to the European standard EN 1040 and compared with the activities of customary commercial products. For this, only relatively small modifications were made. The substances of the formula (1) were dissolved in water or ethanol to give a 1% strength stock solution. For determining the bactericidal activities, the test mixtures were selected such that 1000 ppm of active substance was present in an aqueous solution. The procedure was the same with the comparison samples. For the results shown in table 2, the test mixtures were inoculated with the following bacterial strains such that the stated germ densities were present in the test mixtures. P. aeruginosa ATCC 15442 1−2×10^7 CFU/ml The test mixtures were incubated at room temperature (22° C.+/−2° C.). After defined contact times, aliquots of 1 ml were taken in order to determine the surviving germ count. For the deactivation of the microbicidal activity of the diols, the aliquots were diluted in 1:10 dilution steps in a solution of TS broth with 10% Tween, 3% lecithin, 0.1% histidines and 0.5% sodium thiosulfate and the 10^−2 and 10^−3 dilution stages were used for determining the surviving germ count. For this purpose, corresponding aliquots were plated out on Caso medium with inhibitor (Merck) and incubated at 37° C. for 24 h. The ascertained surviving germ counts were in each case compared with a mixture containing water (water control) by determining the logarithmic reduction in the surviving germ counts based on the water control.

S. aureus ATCC 6538 [1] = test: Suspension test EN 1040, bactericidal activity; settings: 1000 ppm of active substance
Description: as §1, with “S. aureus” for “P. aeruginosa”, “6538” for “15442”

S. aureus ATCC 6538 [2] = test: Preservation stress test, example formulation 2 (roll-on deodorant formulation); settings: 1% active substance
Description: (§2) Preservation stress tests (PSTs) were carried out in order to determine the preserving activity of the diols. In the preservation stress test, this is simulated through artificial loadings with microorganisms. These can either be inoculated as mixed population or individually in mixtures independent of one another. The inoculated product samples are incubated under defined conditions and, after defined times, samples are taken in order to determine the germ loading. In the case of adequate preservation, the number of microorganisms should, depending on the type, either decrease or remain constant in order to satisfy the requirements specified, e.g. in Ph. Eur. 6.0. To investigate the preserving effect of the diols, application-typical amounts of the diols were incorporated into example formulations. […] [table] These example formulations were used to prepare various mixtures which each comprised 1% active substance or comprised water instead of the active substance as placebo mixtures. These mixtures were in each case inoculated with the test germs such that a germ loading of 10^5-10^6 CFU/g was present in the test mixture. The bacteria were either used individually for the inoculation or as a mixed culture. To determine the starting germ count, immediately after inoculation, an aliquot was taken, diluted in dilution medium (phosphate buffer, 0.07 molar pH 7.4 (+/−0.2), with 1% Tween 80+0.3% soya lecithin), and the surviving germ count was determined in the dilution stages 10^−1 to 10^−3. The inoculated product samples then incubated for a total of 28 d at 20-25° C. After 2 d, 7 d, 14 d and after 28 d, aliquots were taken and diluted in dilution medium (phosphate buffer, 0.07 molar pH 7.4 (+/−0.2), with 1% Tween 80+0.3% soya lecithin). The surviving germ counts were determined in the dilution stages 10^−1 to 10^−4. The reference point taken for determining the reduction in germ count was the respective initial value of the sample. The results were given as logarithmic reductions.

C. albicans ATCC 10231 = test: as above; settings: 1% active substance
Description: as §2

E. coli ATCC 10536 = test: Suspension test EN 1040, bactericidal activity; settings: 1000 ppm of active substance
Description: as §1, with “E. coli” for “P. aeruginosa”, “10536” for “15442”

[3] = tested on: E. coli ATCC 10536, S. aureus ATCC 6538, P. aeruginosa ATCC 15442; test: Preservation stress test, example formulation 1 (standard emulsion O/W), bacteria together; settings: 1% active substance, P. aeruginosa (one time series)
Description: as §2

Structure (SMILES) | Microbicidal activity given as logarithmic reduction in germ count (P. aeruginosa ATCC 15442; contact time 5 min) [log. red.] | Microbicidal activity given as logarithmic reduction in germ count (S. aureus ATCC 6538 [1]; contact time 5 min) [log. red.] | Microbicidal activity given as logarithmic reduction in germ count (S. aureus ATCC 6538 [1]; contact time 30 min) [log. red.] | Microbicidal activity given as logarithmic reduction in germ count (S. aureus ATCC 6538 [1]; contact time 24 h) [log. red.] | Microbicidal activity given as logarithmic reduction in germ count (S. aureus ATCC 6538 [2]; 48 h) | Microbicidal activity given as logarithmic reduction in germ count (S. aureus ATCC 6538 [2]; 7 d) [log. Red.] | Microbicidal activity given as logarithmic reduction in germ count (S. aureus ATCC 6538 [2]; 14 d) [log. Red.] | Microbicidal activity given as logarithmic reduction in germ count (C. albicans ATCC 10231; 48 h) [log. Red.] | Microbicidal activity given as logarithmic reduction in germ count (C. albicans ATCC 10231; 7 d) | Microbicidal activity given as logarithmic reduction in germ count (C. albicans ATCC 10231; 14 d) [log. Red.] | Microbicidal activity given as logarithmic reduction in germ count (E. coli ATCC 10536; contact time 5 min) [log. red.] | Microbicidal activity given as logarithmic reduction in germ count (E. coli ATCC 10536; contact time 30 min) [log. red.] | Microbicidal activity given as logarithmic reduction in germ count (E. coli ATCC 10536; contact time 24 h) [log. red.] | Microbicidal activity given as logarithmic reduction in germ count ([3]; 48 h) | Microbicidal activity given as logarithmic reduction in germ count ([3]; 7 d) [log. Red.] | Microbicidal activity given as logarithmic reduction in germ count ([3]; 14 d) [log. Red.] | Microbicidal activity given as logarithmic reduction in germ count ([3]; 28 d) [log. Red.] | Microbicidal activity given as logarithmic reduction in germ count (S. aureus ATCC 6538 [2]; 28 d) [log. Red.] | Microbicidal activity given as logarithmic reduction in germ count (P. aeruginosa ATCC 15442; contact time 30 min) [log. red.]
CCCC(O)CO (stereo not drawn) [1,2-Pentanediol, 1,2-pentanediol, reference compound] | <1 | <1 | <1 | <1 | 1 log. Red. | 1 | 5 | 0 | 0 log. Red. | 0 | <1 | <1 | <1 |  |  |  |  |  | 
OCC1(CO)CCCC1 [DMCP, 1,1-dimethylolcyclopentane] |  |  |  |  | ≧3 log. Red. | 5 | 5 | 0 | 0 log. Red. | 0 |  |  |  | 3 log. Red. | 5 | 5 | 5 | 5 | 
CC(C)C(C)(CO)CO [IMPD, 2-isopropyl-2-methylpropane-1,3-diol] |  |  |  |  | ≧3 log. Red. | 5 | 5 | 0 | 0 log. Red. | 0 |  |  |  | ≧3 log. Red. | 5 | 5 | 5 | 5 | 
CCCCCC(CO)(CO)CCC [PPPD, 2-pentyl-2-propylpropane-1,3-diol] | 3.2 | <1 | 1.5 | >5 | 5 log. Red. | 5 | 5 | 0 | 0 log. Red. | 0 | >5 | >5 | >5 | ≧3 log. Red. | 5 | 5 | 5 | 5 | 3.1
CCCCCCCCC(C)(CO)CO [OMPD, 2-octyl-2-methylpropane-1,3-diol] | 4.5 | <1 | 4.8 | >5 | ≧3 log. Red. | 5 | 5 | 0 | 0 log. Red. | 0 | >5 | >5 | >5 | ≧3 log. Red. | 5 | 5 | 5 | 5 | 4.7
OCC1(CO)CC2CCC1C2 (stereo not drawn) [2,2-DMNB, 2,2-dimethylolnorbornane] |  |  |  |  | ≧3 log. Red. | 5 | 5 | 0 | ≧3 log. Red. | 0 |  |  |  | ≧3 log. Red. | 5 | 5 | 5 | 5 | 

Source: patent publication US20120152149A1, “USE OF 1,3-DIOLS AS BIOCIDES” (BASF SE, priority 2009, published 2012)
